{"source": "patent US20210163459A1", "about": "“PESTICIDALLY ACTIVE AZETIDINE SULFONES AMIDE ISOXAZOLINE DERIVATIVES” (SYNGENTA CROP PROTECTION AG, priority 2018, published 2021)", "key": {"[1]": {"system": "Spodoptera littoralis", "test": "Spodoptera littoralis (Egyptian Cotton Leaf Worm) test on sprayed cotton leaf discs", "assay_type": "in vivo", "conditions": "foliar, 72 h, application rate of 200 ppm, L1 larvae, assessed 3 days after infestation in comparison to untreated samples, read-out: control (mortality, anti-feeding effect, growth inhibition)", "procedure": "Spodoptera littoralis (Egyptian Cotton Leaf Worm)\nCotton leaf discs were placed onto agar in 24-well microtiter plates and sprayed with aqueous test solutions prepared from 10′000 ppm DMSO stock solutions. After drying the leaf discs were infested with five L1 larvae. The samples were assessed for mortality, anti-feeding effect, and growth inhibition in comparison to untreated samples 3 days after infestation. Control of Spodoptera littoralis by a test sample is given when at least one of the categories mortality, anti-feedant effect, and growth inhibition is higher than the untreated sample."}, "[2]": {"system": "Euschistus heros", "test": "Euschistus heros (Neotropical Brown Stink Bug) test on sprayed soybean leaves", "assay_type": "in vivo", "conditions": "120 h, application rate of 200 ppm, N2 nymphs, assessed 5 days after infestation in comparison to untreated samples, read-out: effect in at least one of the two categories (mortality or growth inhibition)", "procedure": "Euschistus heros(Neotropical Brown Stink Bug)\nSoybean leaves on agar in 24-well microtiter plates were sprayed with aqueous test solutions prepared from 10′000 ppm DMSO stock solutions. After drying the leaves were infested with N2 nymphs. The samples were assessed for mortality and growth inhibition in comparison to untreated samples 5 days after infestation.\nThe following compounds gave an effect of at least 80% in at least one of the two categories (mortality or growth inhibition) at an application rate of 200 ppm: A1, A2"}}, "data": [{"compound": "COC(=O)OCN(C(=O)c1ccc(C2=NO[C@@](c3cc(Cl)c(F)c(Cl)c3)(C(F)(F)F)C2)cc1C)C1CN(S(=O)(=O)C(F)F)C1", "note": "[Compound A2, [[4-[(5S)-5-(3,5-dichloro-4-fluoro-phenyl)-5-(trifluoromethyl)-4H-isoxazol-3-yl]-2-methyl-benzoyl]-[1-(difluoromethylsulfonyl)azetidin-3-yl]amino]methyl methyl carbonate]", "values": [{"measurement": "mortality at 200 ppm", "setting": "[1]", "result": "≥ 80", "unit": "%"}, {"measurement": "percent effect (mortality or growth inhibition) at 200 ppm", "setting": "[2]", "result": "≥ 80", "unit": "%"}]}]}
